Source: paper PMC4399838, “Antipsychotic-Like Effect of the Muscarinic Acetylcholine Receptor Agonist BuTAC in Non-Human Primates” (PLoS ONE, 2015)
Like-named read-outs stand apart in the source and are kept apart here.

How the values were obtained:
[1] = molecular target: T1, human M4 muscarinic receptor (Homo sapiens, UniProt P08173); design: method as in Watt et al. 2013 [10]; conditions: ref Watt et al. 2013 [10], cited from earlier work
T1 construct: purchased PerkinElmer Life and Analytical Sciences, Boston, MA
T1 sequence (P08173 1-479): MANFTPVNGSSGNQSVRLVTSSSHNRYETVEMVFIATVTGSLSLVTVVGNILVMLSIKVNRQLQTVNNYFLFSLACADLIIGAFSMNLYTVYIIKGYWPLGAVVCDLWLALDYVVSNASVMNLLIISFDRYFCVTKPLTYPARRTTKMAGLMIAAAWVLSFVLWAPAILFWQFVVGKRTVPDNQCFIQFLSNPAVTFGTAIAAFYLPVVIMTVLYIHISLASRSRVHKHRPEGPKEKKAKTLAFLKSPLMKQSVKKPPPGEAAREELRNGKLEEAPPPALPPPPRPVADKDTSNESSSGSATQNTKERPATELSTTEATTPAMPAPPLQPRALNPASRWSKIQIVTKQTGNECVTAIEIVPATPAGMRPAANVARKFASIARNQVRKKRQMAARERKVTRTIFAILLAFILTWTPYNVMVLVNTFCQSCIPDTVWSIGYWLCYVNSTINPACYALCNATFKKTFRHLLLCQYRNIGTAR

[2] = molecular target: M3AChR (Homo sapiens, UniProt P20309); test: Competitive radioligand binding
[3] = molecular target: T2, human M5 muscarinic receptor (Homo sapiens, UniProt P08912); test: GTP-γ-[35S] binding, antibody capture SPA (agonist and antagonist mode); type: biochemical
T2 construct: purchased PerkinElmer Life and Analytical Sciences, Boston, MA
T2 sequence (P08912 1-532): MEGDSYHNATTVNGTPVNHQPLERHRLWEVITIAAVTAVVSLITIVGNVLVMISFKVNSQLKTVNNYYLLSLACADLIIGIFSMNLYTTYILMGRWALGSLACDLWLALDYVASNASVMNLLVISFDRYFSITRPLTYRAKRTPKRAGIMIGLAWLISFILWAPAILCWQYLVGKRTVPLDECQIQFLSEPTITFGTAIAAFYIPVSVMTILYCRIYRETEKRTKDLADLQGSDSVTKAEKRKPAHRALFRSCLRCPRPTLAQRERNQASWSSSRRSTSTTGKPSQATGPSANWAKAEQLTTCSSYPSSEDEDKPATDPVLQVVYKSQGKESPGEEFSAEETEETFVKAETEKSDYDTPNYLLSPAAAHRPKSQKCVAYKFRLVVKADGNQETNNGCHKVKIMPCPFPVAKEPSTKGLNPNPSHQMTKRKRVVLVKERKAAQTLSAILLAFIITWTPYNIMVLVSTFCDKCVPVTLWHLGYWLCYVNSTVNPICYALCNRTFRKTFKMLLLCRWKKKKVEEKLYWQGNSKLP
Method: (§1) The antibody capture scintillation proximity technique previously described by DeLapp et al was used in a 96-well plate to determine GTP-γ-[35S] binding. One hundred μl (20–40 fmol/well) of membrane preparation from CHO cells that stably express the human M1-M5 muscarinic receptors (PerkinElmer Life and Analytical Sciences, Boston, MA) were incubated with varying concentration of test compound (final concentrations from 50pM to 1μM) for 30 min. One μM final concentration of GDP was added to M2 and M4 receptor membranes before incubation. […] (500 pM final concentration; Perkin Elmer Life and Analytical Sciences) was added to each well followed by 30 min of incubation. […] An anti-Gαq/11 antibody was used for the M1-, M3-, and M5 membranes, whereas an anti-Gαi-3 antibody was used for the M2- and M4 membranes (Eli Lilly and Company, Indianapolis, IN). […] By use of a Wallac MicroBeta TriLux scintillation counter (PerkinElmer), the plates were centrifuged for 10 min at 700 × g and counted for 1 min per well. The incubations took place at room temperature in GTP-binding assay buffer (20 mM Hepes, 100 mm NaCl, 5 mM MgC12, pH 7.4). The data were analyzed by use of nonlinear regression for a sigmoidal concentration response curve (GraphPad Prism v. 4.0). Data were normalized to a full agonist response (100 μM oxotremorine-M). […] The antagonist percent inhibition data were normalized to data generated with an EC90 concentration of acetylcholine. The mean relative EC50, IC50, and %Emax, and pKi values were calculated as a mean of at least three independent experiments±SEM. In order to obtain relevant comparisons between subtypes, the experimental system is routinely calibrated with reference agonists (oxotremorine-M, pilocarpine, MCN-A343) to measure full and partial agonism as well as to ensure that the system is not under- or over-reporting functional efficacies. The radioligand binding assays have earlier been described.

[4] = molecular target: T3, human M1 muscarinic receptor (Homo sapiens, UniProt P11229); test: as above; type: biochemical
T3 construct: purchased PerkinElmer Life and Analytical Sciences, Boston, MA
T3 sequence (P11229 1-460): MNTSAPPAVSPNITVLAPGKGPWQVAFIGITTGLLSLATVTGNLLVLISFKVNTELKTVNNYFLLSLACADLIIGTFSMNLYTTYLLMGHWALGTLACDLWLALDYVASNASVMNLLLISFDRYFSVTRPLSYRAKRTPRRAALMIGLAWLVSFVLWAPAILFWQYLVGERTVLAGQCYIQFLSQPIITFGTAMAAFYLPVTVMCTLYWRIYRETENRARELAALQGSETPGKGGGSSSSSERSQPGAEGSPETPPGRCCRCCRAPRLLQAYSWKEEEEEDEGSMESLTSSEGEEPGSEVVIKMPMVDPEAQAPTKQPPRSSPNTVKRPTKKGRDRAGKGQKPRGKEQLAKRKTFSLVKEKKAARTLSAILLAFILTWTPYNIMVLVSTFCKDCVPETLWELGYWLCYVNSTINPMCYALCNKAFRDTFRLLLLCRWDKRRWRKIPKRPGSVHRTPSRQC
Method: as §1

[5] = molecular target: T1, human M4 muscarinic receptor; test: as above; type: biochemical
Method: as §1

[6] = antagonist mode, maximal inhibition of EC90 agonist response

M3AChR, sequence (P20309 whole entry): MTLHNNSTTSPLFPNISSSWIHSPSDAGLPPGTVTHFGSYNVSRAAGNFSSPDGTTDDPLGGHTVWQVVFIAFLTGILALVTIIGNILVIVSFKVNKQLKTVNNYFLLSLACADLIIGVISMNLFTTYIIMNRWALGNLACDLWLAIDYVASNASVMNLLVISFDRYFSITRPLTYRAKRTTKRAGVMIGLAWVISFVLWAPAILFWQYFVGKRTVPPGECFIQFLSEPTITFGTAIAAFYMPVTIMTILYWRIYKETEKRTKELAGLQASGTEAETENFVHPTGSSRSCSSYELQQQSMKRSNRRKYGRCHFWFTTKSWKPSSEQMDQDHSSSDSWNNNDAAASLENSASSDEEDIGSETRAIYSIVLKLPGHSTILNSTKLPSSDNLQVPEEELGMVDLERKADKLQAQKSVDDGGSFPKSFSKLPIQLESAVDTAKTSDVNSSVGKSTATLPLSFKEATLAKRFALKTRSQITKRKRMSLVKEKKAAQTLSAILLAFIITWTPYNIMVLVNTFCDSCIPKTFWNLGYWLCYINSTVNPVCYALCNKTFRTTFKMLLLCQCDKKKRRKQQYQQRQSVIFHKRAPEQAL

Row | Structure (SMILES) | Rel pEC50 ([1]; agonist mode, negative log-transformed) [M] | % Emax ([1]; agonist mode) [%] | Rel pIC50 ([1]; antagonist mode, negative log-transformed) [M] | % Inhibition ([1]; antagonist mode) [%] | Ki [2] [nM] | EC50 [3] [nM] | Emax [3] [%] | IC50 ([3]; antagonist mode against EC90 of agonist, negative log-transformed, read-out: Rel pIC50 (converted)) [nM] | % Inhibition [3, 6] [%] | EC50 [4] [nM] | IC50 [4] [nM] | % Inhibition [4, 6] [%] | Emax ([4]; percentage of maximum 100 μM oxotremorine-M signal) [%] | EC50 [5] [nM] | Emax [5] [%] | IC50 [5] [nM] | % Inhibition [5, 6] [%]
1 | CCCCSc1nsnc1[C@H]1CN2CCC[C@H]1C2 [BuTAC, (5R,6R)-6-(3-butylthio-1,2,5-thiadiazol-4-yl)-1-azabicyclo[3.2.1]octane] | 10.27 ± 10.31 | 35.53 ± 11.51 | 9.19 ± 9.13 | 57.55 ± 3.22 |  |  |  |  |  |  |  |  |  |  |  |  | 
2 | CCCSc1nsnc1[C@H]1CN2CCC[C@H]1C2 [PTAC, (5R,6R) 6-(3-propylthio-1,2,5-thiadiazol-4-yl)-1-azabicyclo-[3.2.1]-octane] |  |  |  |  | 0.398 | 15.5 | 15.4 ± 2.73 | 107 | 87.3 ± 7.07 | 0.372 | 0.933 | 54.3 ± 1.70 | 38.1 ± 9.94 | 1.48 | 19.4 ± 0.52 | 24.5 | 92.7 ± 7.49
